Among the data in ChEMBL document CHEMBL4000149, “The effect of glycine replacement with flexible ω-amino acids on the antimicrobial and haemolytic activity of an amphipathic cyclic heptapeptide” (Eur J Med Chem, 2015) are MIC, hemolysis and EC50 values, retold here.

In series [1] the test system is Pseudomonas aeruginosa. Put plainly: Antimicrobial activity against Pseudomonas aeruginosa ATCC 27853 by tube dilution method. It is filed as functional.
For series [2], the system named is Candida albicans. Put plainly: Antifungal activity against Candida albicans ATCC 200955 by tube dilution method. In kind it is functional.
Series [3] deals with Acinetobacter baumannii. The series is described as follows: Antimicrobial activity against multidrug-resistant Acinetobacter baumannii ATCC BAA-1605 by tube dilution method. It is filed as functional.
For series [4], the system named is Escherichia coli. Put plainly: Antimicrobial activity against Escherichia coli ATCC 25922 by tube dilution method. It is filed as functional.
The nature of series [5]: Toxicity in human erythrocytes assessed as hemolysis at 150 uM after 1 hr. It is filed as cell-based, Erythrocyte. Particulars: read-out: Activity.
Series [6] deals with Staphylococcus aureus. The series is described as follows: Antimicrobial activity against methicillin-resistant Staphylococcus aureus ATCC 33591 by tube dilution method. In kind it is functional.
Series [7] relates to Enterococcus faecium. Put plainly: Antimicrobial activity against vancomycin-resistant Enterococcus faecium ATCC 700221 by tube dilution method. In kind it is functional.
A short description of series [8]: Toxicity in human erythrocytes assessed as hemolysis after 1 hr. In kind it is cell-based, Erythrocyte.
The test system of series [9] is Klebsiella pneumoniae. The series is described as follows: Antimicrobial activity against multidrug-resistant Klebsiella pneumoniae ATCC 700603 by tube dilution method. In kind it is functional.

In brackets after ≈: the same amount, converted by molar mass. Square brackets hold non-standard residues; d marks the D form. Peptide text beside a SMILES is read from it. 2Nal = N[C@@H](Cc1ccc2ccccc2c1)C(=O)O Where only a bound is given, the exact number is not on record here.

One may read the MIC as the lowest concentration found to suppress growth. For orientation: EC50 means the concentration at which the effect is half-maximal. Turning to `CC(C)C[C@@H]1NC(=O)CNC(=O)[C@H](Cc2ccc(O)cc2)NC(=O)[C@H](CCCNC(=N)N)NC(=O)[C@H](CC(C)C)NC(=O)[C@H](Cc2ccc3ccccc3c2)NC(=O)[C@H](CCCNC(=N)N)NC1=O` (cyclo([2Nal]LRYGLR)), the MIC in series [1] was over 128 µM; in [2], over 128 µM; in series [3], over 128 µM; in [4] it was over 128 µM; in [6], 128 µM (≈ 122 µg/mL); in series [7], 64 µM (≈ 61.2 µg/mL). In [9], the MIC is over 128 µM. The hemolysis at 1 h, 150 µM in series [5] turned out to be 19%. Moreover, in [8], the EC50 at 1 hr was over 150 µM.
Turning to `CC(C)C[C@@H]1NC(=O)[C@H](Cc2ccc3ccccc3c2)NC(=O)[C@H](CCCNC(=N)N)NC(=O)[C@H]([C@@H](C)O)NC(=O)CNC(=O)[C@H](Cc2ccc3ccccc3c2)NC(=O)[C@H](CCCNC(=N)N)NC1=O` (cyclo([2Nal]GTR[2Nal]LR)), the MIC in series [1] is over 128 µM; in [2], 128 µM (≈ 125 µg/mL); in [3], over 128 µM; in [4] it was over 128 µM; in series [6], 32 µM (≈ 31.3 µg/mL); in series [7], 64 µM (≈ 62.6 µg/mL). In series [9], the MIC is over 128 µM. Besides, in series [5], the hemolysis at 1 h, 150 µM is under 8%. Besides, the EC50 at 1 hr in [8] is over 150 µM.
